Test [1] concerns Arabidopsis overexpression line Arabidopsis HPPD. Briefly: Germination assay in 48-well plates. Format: in vivo, Arabidopsis thaliana. As to conditions: plant growth IC50 transgenic / wildtype, mean of 5 T2 events. On the procedure:
(§1) Depending on the species, the plants are kept at 10-25° C. or 20-35° C. The test period extends over 3 weeks. During this time, the plants are tended and their response to the individual treatments is evaluated. Herbicide injury evaluations are taken at 2 and 3 weeks after treatment. Plant injury is rated on a scale of 0 to 9, 0 being no injury and 9 being complete death. Tolerance to HPPD-inhibiting, preferably pyrazolone, isoxazole, or triketone derivative herbicides can also be assessed in Arabidopsis. In this case transgenic Arabidopsis thaliana plants are assayed for improved tolerance to HPPD-inhibiting, preferably pyrazolone, isoxazole, or triketone derivative herbicides in 48-well plates. Seeds are surface sterilized by stirring for 5 min in ethanol+water (70+30 by volume), rinsing one time with ethanol+water (70+30 by volume) and two times with a sterile, deionized water. The seeds are resuspended in 0.1% agar dissolved in water (w/v). Four to five seeds per well are plated on solid nutrient medium consisting of half-strength Murashige Skoog nutrient solution, pH 5.8 (Murashige and Skoog (1962) Physiologia Plantarum 15: 473-497). Compounds are dissolved in dimethylsulfoxid (DMSO) and added to the medium prior solidification (final DMSO concentration 0.1%). Multi well plates are incubated in a growth chamber at 22° C., 75% relative humidity and 110 μmol Phot*m−2*s−1 with 14:10 h light:dark photoperiod. Seven to ten days after seeding growth inhibition is evaluated by comparison to wild type plants. Tolerance factor is calculated by dividing the plant growth IC50 value of transgenic plants containing a HPPD and/or HST sequence by that of wildtype plants.

Test [2] concerns Arabidopsis wild-type control. Nature of the test: Germination assay in 48-well plates. Format: in vivo, Arabidopsis thaliana. The following applies: plant growth IC50 ratio to wildtype, mean of 5 T2 events. How it is done: as §1
The test system of test [3] is Arabidopsis overexpression line Synechocystis HPPD. Briefly: Germination assay in 48-well plates. Format: in vivo, Arabidopsis thaliana. The following applies: IC50 transgenic / wildtype, mean of 5 T2 events. How it is done: as §1
For test [4], the system named is untransformed control soybean plants (Jake). Briefly: Herbicide field trial. Format: in vivo, Glycine max. The following applies: 7 DAT with 50 g/ha, post-emergence V2-V3, 1% v/v MSO; preliminary assessment, FIG. 7. On the procedure:
(§2) Transgenic plants expressing heterologous HPPD or HST enzymes are tested for tolerance against HPPD-inhibiting herbicides in field experiments.
(§3) A study can be conducted at a field trial location to evaluate the effect of HPPD herbicides on the phenotypic and phenologic characteristics of a soybean variety containing different transgenes.
(§4) The trial is designed as a randomized complete block with a split-plot treatment design. The trial contains mainplots defined by ‘herbicide treatment’ (combination of herbicide and application rate). The herbicide treatments are applied post-emergence at the V2-V3 plant growth stage. […]
(§5) Each plot consists of a single row 1.2 m long and adjacent plots are spaced 0.76 m apart. […] The zygosity of each plant of transgenic event is determined prior to the application of the herbicide treatment.
(§6) The effect of the HPPD herbicide treatments on phenotypic and phenologic characteristics of plants representing each transgenic event and control variety, including tolerance to each herbicide treatment, is assessed during different vegetative and reproductive stages of plant growth.
(§7) An analysis of variance is conducted on data collected from each subplot and a Student's T test or Tukey's test is calculated where appropriate to compare means. […]

The subject of test [5] is soybean plants expressing mutated Arabidopsis HPPD. Briefly: Herbicide field trial. Format: in vivo, Glycine max. As to conditions: 7 DAT with 50 g/ha, post-emergence V2-V3, 1% v/v MSO; preliminary assessment, FIG. 7. On the procedure:
as §2, §3, §4, §5, §6, §7

Test [6] has as its system transgenic Arabidopsis plants (T2) HvHPPD L320H. Format: in vivo, Arabidopsis thaliana. The following applies: for Injury evaluation: Arabidopsis T2 HvHPPD L320H, two weeks after treatment. From the text:
For post emergence treatment, the test plants are first grown to a height of 3 to 15 cm, depending on the plant habit, and only then treated with the herbicides. For this purpose, the test plants are either sown directly and grown in the same containers, or they are first grown separately and transplanted into the test containers a few days prior to treatment.
Herbicide injury scoring is done 2-3 weeks after treatment and is rated on a scale of 0 to 100%, 0% being no injury and 100% being complete death.
Transgenic Arabidopsis plants were sprayed with a range of doses from 0.78-6.25 g/ha of different HPPD-inhibiting herbicides and injury evaluations were taken two weeks after treatment.

From patent US12065654B2, “Plants having increased tolerance to herbicides” (BASF SE, priority 2014, dated 2024) come the findings set out here.

Where two headings read alike, the source gives them in different places.

`Cc1c(C(=O)c2cnn(C)c2O)ccc(S(C)(=O)=O)c1C1=NOCC1` [Inhibitor 1, [3-(4,5-dihydroisoxazol-3-yl)-2-methyl-4-methylsulfonyl-phenyl]-(5-hydroxy-1-methyl-pyrazol-4-yl)methanone]: the results for the Tolerance factor in test [1], in test [2] and in test [3] were 9, 1 and 7.5, respectively. Also, the results for the “field injury (in words)” value in test [4] and in test [5] were “severe herbicide damage” and “low-moderate injury”, respectively. The same molecule had a fold increased tolerance in test [6] (Arabidopsis HvHPPD L320H, lowest concentration tested) of 6.5 fold. In addition, the Injury evaluation was 13% in test [6] (0.78 g/ha), 57% in test [6] (1.56 g/ha), 68% in test [6] (3.125 g/ha) and 94% in test [6] (6.25 g/ha).

On to `CS(=O)(=O)c1ccc(C(=O)C2C(=O)CCCC2=O)c([N+](=O)[O-])c1` [Inhibitor 2, 2-(4-methylsulfonyl-2-nitro-benzoyl)cyclohexane-1,3-dione], for which the values for the Tolerance factor in test [1], in test [2] and in test [3] were 10, 1 and 10, respectively. Also, the “resistance (in words)” value in test [6] (Arabidopsis HvHPPD L320H, 0.78-6.25 g/ha) is listed as “resistant”. For the same molecule, the Injury evaluation in test [6] (0.78 g/ha), in test [6] (1.56 g/ha), in test [6] (3.125 g/ha) and in test [6] (6.25 g/ha) was 0% in each case.
